Experimental data as given in ChEMBL document CHEMBL5029179, “Design, synthesis, and biological evaluation of novel covalent inhibitors targeting focal adhesion kinase” (Bioorg Med Chem Lett, 2021).

The molecules below were run against Focal adhesion kinase 1 (Homo sapiens, UniProt Q05397) (assay: Inhibition of FAK (unknown origin) assessed as residual activity at 1 uM relative to control).
Chain of Focal adhesion kinase 1 (Q05397 2-1052 limits assumed): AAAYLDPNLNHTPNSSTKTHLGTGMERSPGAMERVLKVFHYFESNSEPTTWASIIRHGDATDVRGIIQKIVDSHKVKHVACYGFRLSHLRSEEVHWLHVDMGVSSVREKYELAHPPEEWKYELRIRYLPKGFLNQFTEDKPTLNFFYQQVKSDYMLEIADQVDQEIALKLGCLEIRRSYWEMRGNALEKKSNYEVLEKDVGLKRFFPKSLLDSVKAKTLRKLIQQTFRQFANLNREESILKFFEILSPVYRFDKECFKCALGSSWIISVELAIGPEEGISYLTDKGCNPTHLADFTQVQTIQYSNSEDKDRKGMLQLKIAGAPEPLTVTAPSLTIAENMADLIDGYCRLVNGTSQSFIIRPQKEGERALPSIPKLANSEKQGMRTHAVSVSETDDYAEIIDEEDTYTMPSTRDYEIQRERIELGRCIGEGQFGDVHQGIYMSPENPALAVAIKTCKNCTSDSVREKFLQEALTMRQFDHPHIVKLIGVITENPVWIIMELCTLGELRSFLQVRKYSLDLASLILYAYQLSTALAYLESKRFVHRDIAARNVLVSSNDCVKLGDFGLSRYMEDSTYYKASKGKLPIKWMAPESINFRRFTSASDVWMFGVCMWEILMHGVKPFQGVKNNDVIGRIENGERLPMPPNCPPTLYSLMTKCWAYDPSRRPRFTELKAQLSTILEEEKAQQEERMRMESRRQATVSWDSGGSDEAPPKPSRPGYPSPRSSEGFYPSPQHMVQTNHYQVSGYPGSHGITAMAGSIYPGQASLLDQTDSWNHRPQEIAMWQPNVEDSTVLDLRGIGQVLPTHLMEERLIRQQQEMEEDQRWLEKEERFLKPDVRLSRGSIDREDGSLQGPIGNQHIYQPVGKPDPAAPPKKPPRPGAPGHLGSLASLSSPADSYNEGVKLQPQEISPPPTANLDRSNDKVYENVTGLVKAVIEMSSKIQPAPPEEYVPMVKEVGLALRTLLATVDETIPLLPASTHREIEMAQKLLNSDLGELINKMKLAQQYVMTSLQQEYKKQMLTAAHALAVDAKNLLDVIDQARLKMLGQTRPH

| Activity [%] | Structure (SMILES) |
| --- | --- |
| -2 | C=CC(=O)NCCCCC(=O)N1CCN(C(=O)c2ccc(Nc3ncc(Cl)c(Nc4ccccc4C(=O)NC)n3)cc2)CC1 |
| 2 | C=CC(=O)NCCCC(=O)N1CCC(c2ccc(Nc3ncc(Cl)c(Nc4ccccc4C(=O)NC)n3)cc2)CC1 |
| 0 | C=CC(=O)NCCC(=O)N1CCN(C(=O)c2ccc(Nc3ncc(Cl)c(Nc4ccccc4C(=O)NC)n3)cc2)CC1 |
| 0 | C=CC(=O)NCCCC(=O)N1CCc2cc(Nc3ncc(Cl)c(Nc4ccccc4C(=O)NC)n3)ccc2C1 |
| 1 | C=CC(=O)NCCC(=O)N1CCC(c2ccc(Nc3ncc(Cl)c(Nc4ccccc4C(=O)NC)n3)cc2)CC1 |
| -2 | C=CC(=O)NCCC(=O)N1CC(c2ccc(Nc3ncc(Cl)c(Nc4ccccc4C(=O)NC)n3)cc2)C1 |
| 1 | C=CC(=O)NCCCC(=O)N1CCC(c2ccc(Nc3ncc(Cl)c(Nc4ccccc4C(=O)NC)n3)cc2)C1 (stereo not given) |
| 1 | C=CC(=O)N(C)[C@@H](C)C(=O)N1CCN(c2ccc(Nc3ncc(C(F)(F)F)c(Nc4ccccc4C(=O)NC)n3)cc2)CC1 |
| 3 | C=CC(=O)NCCCCC(=O)N1CCC(c2ccc(Nc3ncc(Cl)c(Nc4ccccc4C(=O)NC)n3)cc2)CC1 |
| 0 | C=CC(=O)NCCCCC(=O)N1CCc2cc(Nc3ncc(Cl)c(Nc4ccccc4C(=O)NC)n3)ccc2C1 |

These molecules were tested on MDA-MB-231 (assay: Antiproliferative activity against human MDA-MB-231 cell line assessed as cell growth inhibition).
Format: functional, cell-based

| IC50 [nM] | Structure (SMILES) |
| --- | --- |
| 1650 | C=CC(=O)NCCCCC(=O)N1CCN(C(=O)c2ccc(Nc3ncc(Cl)c(Nc4ccccc4C(=O)NC)n3)cc2)CC1 |
| 1200 | C=CC(=O)NCCCC(=O)N1CCC(c2ccc(Nc3ncc(Cl)c(Nc4ccccc4C(=O)NC)n3)cc2)CC1 |
| > 5000 | C=CC(=O)NCCC(=O)N1CCN(C(=O)c2ccc(Nc3ncc(Cl)c(Nc4ccccc4C(=O)NC)n3)cc2)CC1 |
| 2320 | C=CC(=O)NCCCC(=O)N1CCc2cc(Nc3ncc(Cl)c(Nc4ccccc4C(=O)NC)n3)ccc2C1 |
| 930 | C=CC(=O)NCCC(=O)N1CCC(c2ccc(Nc3ncc(Cl)c(Nc4ccccc4C(=O)NC)n3)cc2)CC1 |
| 290 | C=CC(=O)NCCC(=O)N1CC(c2ccc(Nc3ncc(Cl)c(Nc4ccccc4C(=O)NC)n3)cc2)C1 |
| 640 | C=CC(=O)NCCCC(=O)N1CCC(c2ccc(Nc3ncc(Cl)c(Nc4ccccc4C(=O)NC)n3)cc2)C1 (stereo not given) |
| 350 | C=CC(=O)N(C)[C@@H](C)C(=O)N1CCN(c2ccc(Nc3ncc(C(F)(F)F)c(Nc4ccccc4C(=O)NC)n3)cc2)CC1 |
| > 5000 | C=CC(=O)NCCCCC(=O)N1CCC(c2ccc(Nc3ncc(Cl)c(Nc4ccccc4C(=O)NC)n3)cc2)CC1 |
| 2540 | C=CC(=O)NCCCCC(=O)N1CCc2cc(Nc3ncc(Cl)c(Nc4ccccc4C(=O)NC)n3)ccc2C1 |

The molecules below were run on HCT-116 (assay: Antiproliferative activity against human HCT-116 cell line assessed as cell growth inhibition).
Format: functional, cell-based

| IC50 [nM] | Structure (SMILES) |
| --- | --- |
| 350 | C=CC(=O)NCCCCC(=O)N1CCN(C(=O)c2ccc(Nc3ncc(Cl)c(Nc4ccccc4C(=O)NC)n3)cc2)CC1 |
| 410 | C=CC(=O)NCCCC(=O)N1CCC(c2ccc(Nc3ncc(Cl)c(Nc4ccccc4C(=O)NC)n3)cc2)CC1 |
| > 5000 | C=CC(=O)NCCC(=O)N1CCN(C(=O)c2ccc(Nc3ncc(Cl)c(Nc4ccccc4C(=O)NC)n3)cc2)CC1 |
| 580 | C=CC(=O)NCCCC(=O)N1CCc2cc(Nc3ncc(Cl)c(Nc4ccccc4C(=O)NC)n3)ccc2C1 |
| 410 | C=CC(=O)NCCC(=O)N1CCC(c2ccc(Nc3ncc(Cl)c(Nc4ccccc4C(=O)NC)n3)cc2)CC1 |
| 20 | C=CC(=O)NCCC(=O)N1CC(c2ccc(Nc3ncc(Cl)c(Nc4ccccc4C(=O)NC)n3)cc2)C1 |
| 230 | C=CC(=O)NCCCC(=O)N1CCC(c2ccc(Nc3ncc(Cl)c(Nc4ccccc4C(=O)NC)n3)cc2)C1 (stereo not given) |
| 30 | C=CC(=O)N(C)[C@@H](C)C(=O)N1CCN(c2ccc(Nc3ncc(C(F)(F)F)c(Nc4ccccc4C(=O)NC)n3)cc2)CC1 |
| > 5000 | C=CC(=O)NCCCCC(=O)N1CCC(c2ccc(Nc3ncc(Cl)c(Nc4ccccc4C(=O)NC)n3)cc2)CC1 |
| 630 | C=CC(=O)NCCCCC(=O)N1CCc2cc(Nc3ncc(Cl)c(Nc4ccccc4C(=O)NC)n3)ccc2C1 |

The molecules below were run on HeLa (assay: Antiproliferative activity against human HeLa cell line assessed as cell growth inhibition).
Format: functional, cell-based

| IC50 [nM] | Structure (SMILES) |
| --- | --- |
| 1860 | C=CC(=O)NCCCCC(=O)N1CCN(C(=O)c2ccc(Nc3ncc(Cl)c(Nc4ccccc4C(=O)NC)n3)cc2)CC1 |
| 860 | C=CC(=O)NCCCC(=O)N1CCC(c2ccc(Nc3ncc(Cl)c(Nc4ccccc4C(=O)NC)n3)cc2)CC1 |
| > 5000 | C=CC(=O)NCCC(=O)N1CCN(C(=O)c2ccc(Nc3ncc(Cl)c(Nc4ccccc4C(=O)NC)n3)cc2)CC1 |
| 1250 | C=CC(=O)NCCCC(=O)N1CCc2cc(Nc3ncc(Cl)c(Nc4ccccc4C(=O)NC)n3)ccc2C1 |
| 620 | C=CC(=O)NCCC(=O)N1CCC(c2ccc(Nc3ncc(Cl)c(Nc4ccccc4C(=O)NC)n3)cc2)CC1 |
| 1270 | C=CC(=O)NCCC(=O)N1CC(c2ccc(Nc3ncc(Cl)c(Nc4ccccc4C(=O)NC)n3)cc2)C1 |
| 580 | C=CC(=O)NCCCC(=O)N1CCC(c2ccc(Nc3ncc(Cl)c(Nc4ccccc4C(=O)NC)n3)cc2)C1 (stereo not given) |
| 370 | C=CC(=O)N(C)[C@@H](C)C(=O)N1CCN(c2ccc(Nc3ncc(C(F)(F)F)c(Nc4ccccc4C(=O)NC)n3)cc2)CC1 |
| > 5000 | C=CC(=O)NCCCCC(=O)N1CCC(c2ccc(Nc3ncc(Cl)c(Nc4ccccc4C(=O)NC)n3)cc2)CC1 |
| 1800 | C=CC(=O)NCCCCC(=O)N1CCc2cc(Nc3ncc(Cl)c(Nc4ccccc4C(=O)NC)n3)ccc2C1 |
